In ChEMBL document CHEMBL4004838, “Design and synthesis of novel phenyl -1, 4-beta-carboline-hybrid molecules as potential anticancer agents” (Eur J Med Chem, 2017):

Columns and labels:
Format in all cases: functional
BT-549 = assay: Growth inhibition of human BT549 cells assessed as cell growth at 1 uM incubated for 48 hrs by sulforhodamine B assay relative to control; conditions: BT-549, 48 h, read-out: Activity
NCI-H460 = assay: Growth inhibition of human NCI-H460 cells assessed as cell growth at 0.01 uM incubated for 48 hrs by sulforhodamine B assay relative to control; conditions: NCI-H460, 48 h, read-out: Activity
SW-620 [1] = assay: Growth inhibition of human SW620 cells incubated for 48 hrs by sulforhodamine B assay; conditions: SW-620, 48 h
UACC-62 = assay: Growth inhibition of human UACC62 cells assessed as cell growth at 1 uM incubated for 48 hrs by sulforhodamine B assay relative to control; conditions: UACC-62, 48 h, read-out: Activity
PC-3 = assay: Growth inhibition of human PC3 cells assessed as cell growth at 1 uM incubated for 48 hrs by sulforhodamine B assay relative to control; conditions: PC-3, 48 h, read-out: Activity
HOP-62 = assay: Growth inhibition of human HOP62 cells assessed as cell growth at 1 uM incubated for 48 hrs by sulforhodamine B assay relative to control; conditions: HOP-62, 48 h, read-out: Activity
SK-MEL-5 = assay: Growth inhibition of human SK-MEL-5 cells assessed as cell growth at 100 uM incubated for 48 hrs by sulforhodamine B assay relative to control; conditions: SK-MEL-5, 48 h, read-out: Activity
SK-MEL-28 = assay: Growth inhibition of human SK-MEL-28 cells assessed as cell growth at 0.01 uM incubated for 48 hrs by sulforhodamine B assay relative to control; conditions: SK-MEL-28, 48 h, read-out: Activity
HT-29 = assay: Growth inhibition of human HT-29 cells assessed as cell growth at 1 uM incubated for 48 hrs by sulforhodamine B assay relative to control; conditions: HT-29, 48 h, read-out: Activity
HCT-15 = assay: Growth inhibition of human HCT15 cells assessed as cell growth at 1 uM incubated for 48 hrs by sulforhodamine B assay relative to control; conditions: HCT-15, 48 h, read-out: Activity
Hs-578T = assay: Growth inhibition of human Hs 578T cells assessed as cell growth at 100 uM incubated for 48 hrs by sulforhodamine B assay relative to control; conditions: read-out: Activity
M14 = assay: Growth inhibition of human M14 cells assessed as cell growth at 0.01 uM incubated for 48 hrs by sulforhodamine B assay relative to control; conditions: M14, 48 h, read-out: Activity
786-0 = assay: Growth inhibition of human 786-0 cells incubated for 48 hrs by sulforhodamine B assay; conditions: 786-0, 48 h
HCC 2998 [2] = assay: Growth inhibition of human HCC2998 cells assessed as cell growth at 0.01 uM incubated for 48 hrs by sulforhodamine B assay relative to control; conditions: HCC 2998, 48 h, read-out: Activity
HL-60(TB) = assay: Growth inhibition of human HL-60(TB) cells assessed as cell growth at 100 uM incubated for 48 hrs by sulforhodamine B assay relative to control; conditions: HL-60, 48 h, read-out: Activity
RPMI-8226 = assay: Growth inhibition of human RPMI8226 cells assessed as cell growth at 100 uM incubated for 48 hrs by sulforhodamine B assay relative to control; conditions: RPMI-8226, 48 h, read-out: Activity
IGROV-1 = assay: Growth inhibition of human IGROV1 cells assessed as cell growth at 1 uM incubated for 48 hrs by sulforhodamine B assay relative to control; conditions: IGROV-1, 48 h, read-out: Activity
SR [3] = assay: Growth inhibition of human SR cells assessed as cell growth at 100 uM incubated for 48 hrs by sulforhodamine B assay relative to control; conditions: read-out: Activity
SW-620 [4] = assay: Growth inhibition of human SW620 cells assessed as cell growth at 100 uM incubated for 48 hrs by sulforhodamine B assay relative to control; conditions: SW-620, 48 h, read-out: Activity
SNB-75 = assay: Growth inhibition of human SNB75 cells assessed as cell growth at 100 uM incubated for 48 hrs by sulforhodamine B assay relative to control; conditions: SNB-75, 48 h, read-out: Activity
SR [5] = assay: Growth inhibition of human SR cells assessed as cell growth at 0.01 uM incubated for 48 hrs by sulforhodamine B assay relative to control; conditions: read-out: Activity
HCC 2998 [6] = assay: Growth inhibition of human HCC2998 cells incubated for 48 hrs by sulforhodamine B assay; conditions: HCC 2998, 48 h; for TGI: read-out: pTGI (converted)
HCC 2998 [7] = assay: Growth inhibition of human HCC2998 cells assessed as cell growth at 0.1 uM incubated for 48 hrs by sulforhodamine B assay relative to control; conditions: HCC 2998, 48 h, read-out: Activity
EKVX = assay: Growth inhibition of human EKVX cells assessed as cell growth at 1 uM incubated for 48 hrs by sulforhodamine B assay relative to control; conditions: read-out: Activity
OVCAR-3 = assay: Growth inhibition of human OVCAR3 cells assessed as cell growth at 1 uM incubated for 48 hrs by sulforhodamine B assay relative to control; conditions: OVCAR-3, 48 h, read-out: Activity
T47D [8] = assay: Growth inhibition of human T47D cells assessed as cell growth at 0.01 uM incubated for 48 hrs by sulforhodamine B assay relative to control; conditions: read-out: Activity
COLO 205 = assay: Growth inhibition of human COLO205 cells incubated for 48 hrs by sulforhodamine B assay; conditions: COLO 205, 48 h
SK-MEL-2 = assay: Growth inhibition of human SK-MEL-2 cells assessed as cell growth at 1 uM incubated for 48 hrs by sulforhodamine B assay relative to control; conditions: SK-MEL-2, 48 h, read-out: Activity
T47D [9] = assay: Growth inhibition of human T47D cells incubated for 48 hrs by sulforhodamine B assay
TK-10 = assay: Growth inhibition of human TK10 cells assessed as cell growth at 0.1 uM incubated for 48 hrs by sulforhodamine B assay relative to control; conditions: TK-10, 48 h, read-out: Activity
[10] = read-out: LC50 (the source's name)
[11] = read-out: pLC50 (the source's name) (converted)

c1ccc2c3c([nH]c2c1)C(c1ccc(C2NCCc4c2[nH]c2ccccc42)cc1)NCC3 (racemic)
growth at 1 µM (BT-549): 85% | growth at 0.01 µM (NCI-H460): 105% | GI50 (SW-620 [1]; read-out: GI50): 1850 nM | CC50 (SW-620 [1]; [10]): 6.39 µM | TGI (SW-620 [1]; read-out: TGI): 3.44 µM | GI50 (SW-620 [1]; read-out: pGI50 (converted)): 186 nM | CC50 (SW-620 [1]; [11]): 0.646 µM | growth at 1 µM (UACC-62): 43% | growth at 1 µM (PC-3): 66% | growth at 1 µM (HOP-62): 68% | growth at 100 µM (SK-MEL-5): 93% | growth at 0.01 µM (SK-MEL-28): 95% | growth at 1 µM (HT-29): 16% | growth at 1 µM (HCT-15): 24% | growth at 100 µM (Hs-578T): -65% | growth at 0.01 µM (M14): 92% | GI50 (786-0; read-out: GI50): 1740 nM | CC50 (786-0; [10]): 6.54 µM | TGI (786-0; read-out: TGI): 3.38 µM | GI50 (786-0; read-out: pGI50 (converted)): 1740 nM | CC50 (786-0; [11]): 6.61 µM | TGI (786-0; read-out: pTGI (converted)): 3.39 µM | growth at 0.01 µM (HCC 2998 [2]): 91% | growth at 100 µM (HL-60(TB)): 83% | growth at 100 µM (RPMI-8226): 75% | growth at 1 µM (IGROV-1): 70% | growth at 100 µM (SR [3]): -68% | growth at 100 µM (SW-620 [4]): 87% | growth at 100 µM (SNB-75): 98% | growth at 0.01 µM (SR [5]): 108% | GI50 (HCC 2998 [6]; read-out: pGI50 (converted)): 0.275 µM | TGI (HCC 2998 [6]): 1.29 µM | growth at 0.1 µM (HCC 2998 [7]): 81% | growth at 1 µM (EKVX): 70% | growth at 1 µM (OVCAR-3): 65% | growth at 0.01 µM (T47D [8]): 82% | GI50 (COLO 205; read-out: GI50): 2040 nM | CC50 (COLO 205; [10]): 1200 nM | TGI (COLO 205; read-out: TGI): 4.59 µM | GI50 (COLO 205; read-out: pGI50 (converted)): 204 nM | CC50 (COLO 205; [11]): 1200 nM | TGI (COLO 205; read-out: pTGI (converted)): 0.457 µM | growth at 1 µM (SK-MEL-2): 86% | GI50 (T47D [9]; read-out: GI50): 1310 nM | CC50 (T47D [9]; [10]): 7.13 µM | TGI (T47D [9]; read-out: TGI): 3.06 µM | GI50 (T47D [9]; read-out: pGI50 (converted)): 1320 nM | CC50 (T47D [9]; [11]): 7.08 µM | TGI (T47D [9]; read-out: pTGI (converted)): 3.09 µM | growth at 0.1 µM (TK-10): 96%

c1ccc2[nH]c(-c3ccc(-c4nccc5c4[nH]c4ccccc45)cc3)nc2c1
growth at 1 µM (BT-549): 90% | growth at 0.01 µM (NCI-H460): 107% | GI50 (SW-620 [1]; read-out: GI50): 2790 nM | CC50 (SW-620 [1]; [10]): > 1 µM | TGI (SW-620 [1]; read-out: TGI): 8.48 µM | GI50 (SW-620 [1]; read-out: pGI50 (converted)): 2820 nM | CC50 (SW-620 [1]; [11]): > 100 µM | TGI (SW-620 [1]; read-out: pTGI (converted)): 8.51 µM | growth at 1 µM (UACC-62): 80% | growth at 1 µM (PC-3): 95% | growth at 1 µM (HOP-62): 88% | growth at 100 µM (SK-MEL-5): 86% | growth at 0.01 µM (SK-MEL-28): 96% | growth at 1 µM (HT-29): 106% | growth at 1 µM (HCT-15): 93% | growth at 100 µM (Hs-578T): 46% | growth at 0.01 µM (M14): 93% | GI50 (786-0; read-out: GI50): 2240 nM | CC50 (786-0; [10]): 3.83 µM | TGI (786-0; read-out: TGI): 6.3 µM | GI50 (786-0; read-out: pGI50 (converted)): 2240 nM | CC50 (786-0; [11]): 38 µM | TGI (786-0; read-out: pTGI (converted)): 6.31 µM | growth at 0.01 µM (HCC 2998 [2]): 96% | growth at 100 µM (HL-60(TB)): 40% | growth at 100 µM (RPMI-8226): 43% | growth at 1 µM (IGROV-1): 102% | growth at 100 µM (SR [3]): 34% | growth at 100 µM (SW-620 [4]): 33% | growth at 100 µM (SNB-75): 84% | growth at 0.01 µM (SR [5]): 97% | GI50 (HCC 2998 [6]; read-out: GI50): 3.96 µM | LC50 (HCC 2998 [6]; read-out: LC50): 5.31 µM | GI50 (HCC 2998 [6]; read-out: pGI50 (converted)): 3.98 µM | LC50 (HCC 2998 [6]; read-out: pLC50 (converted)): 53.7 µM | TGI (HCC 2998 [6]): 15.8 µM | growth at 0.1 µM (HCC 2998 [7]): 95% | growth at 1 µM (EKVX): 93% | growth at 1 µM (OVCAR-3): 92% | growth at 0.01 µM (T47D [8]): 88% | GI50 (COLO 205; read-out: GI50): 2320 nM | CC50 (COLO 205; [10]): 4350 nM | TGI (COLO 205; read-out: TGI): 6.22 µM | GI50 (COLO 205; read-out: pGI50 (converted)): 2340 nM | CC50 (COLO 205; [11]): 43700 nM | TGI (COLO 205; read-out: pTGI (converted)): 6.17 µM | growth at 1 µM (SK-MEL-2): 94% | GI50 (T47D [9]; read-out: GI50): 2020 nM | CC50 (T47D [9]; [10]): 8.34 µM | TGI (T47D [9]; read-out: TGI): 6.19 µM | GI50 (T47D [9]; read-out: pGI50 (converted)): 2040 nM | CC50 (T47D [9]; [11]): 83.2 µM | TGI (T47D [9]; read-out: pTGI (converted)): 6.17 µM | growth at 0.1 µM (TK-10): 94%
